Test system: 186277-243-T-J2-PDC complex spheroid growth, % test/control
Assay: Anticancer human tumor 186277-243-T-J2-PDC patient-derived colon adenocarcinoma cell line growth inhibition [Asc]
Conditions: for IC50: curve of first compound; for viability, T/C: stronger effect = lower value
Procedure: Multicellular complex tumor spheroid response to apoptosis pathway targeting inhibitors Alrizomadlin, Pelcitoclax, and Dasminapant in combination with a variety of drugs and investigational agents in selected tumor cell lines
The MDM2 inhibitor alrizomadlin, the Bcl-2/Bcl-xL inhibitor pelcitoclax, and the IAPs inhibitor dasminapant were evaluated both individually and in combination with standard of care and investigational anticancer small molecules within a complex spheroid model of solid tumors. . Complex spheroids include a stromal component modeled by human endothelial cells (HUVEC) and fibroblasts modeled by human mesenchymal stem cells (MSCs). The concentration ranges selected for each drug and investigational agent were based upon clinically achievable concentrations if the clinical Cmax of the agent was known.
Compounds. The drugs and investigational agents: alrizomadlin (APG-115; NSC831270), pelcitoclax (APG-1252; NSC835773), dasminapant (APG-1387;NSC834197), TAK-243 (NSC785004), copanlisib (NSC809693), olaparib (NSC753686), talazoparib (NSC767125), cobimetinib (NSC 768068), eltanexor (KPT-8602, NSC 794443), abemaciclib (NSC 768073), sotorasib (NSC818433), adagrasib (NSC 831453), MRTX-1133 (NSC 836407), Iadademestat (ORY1001, NSC 806812), and RMC-4630 (NSC839698), were obtained from the NCI Developmental Therapeutics Program Chemical Repository. The FDA-approved anticancer drug set is available from the Developmental Therapeutics Program at https://dtp.cancer.gov/organization/dscb/obtaining/available plates.htm. […] The stock solutions were prepared in dimethyl sulfoxide (DMSO, Sigma-Aldrich, St. Louis, MO, cat. D2650) at 800-fold the tested concentration and stored at -70 degrees C prior to their use. All drugs and investigational agents were tested over a range starting from a high concentration at or near the clinical Cmax and decreasing in half-log increments. If the clinical Cmax for an agent had not been determined, the highest concentration tested was 10 microM.
The patient-derived cancer (PDC) cell lines include five colon adenocarcinomas: 186277-243-T-J2-PDC, 616215-338-R-J1-PDC, 439559-082-T-J2-PDC, 463943-066-T-J2-PDC, and 519858-162-T-J1-PDC; three pancreatic carcinomas: 323965-272-R-J2-PDC, 521955-158-R6-J3-PDC, and 521955-158-R2-J5-PDC; two uterine sarcomas: 327498-152-R-J2-PDC and 993429-296-R-J1-PDC; two rhabdomyosarcomas: 755483-174-R-J1-PDC and 772245-204-R-J1-PDC; two soft tissue sarcomas: 126254-015-R-J1-PDC and 494315-158-R-J1-PDC; two malignant fibrous histiocytomas: 317291-083-R-J1-PDC and 596521-263-R-J1-PDC; two breast carcinomas: 171881-019-R-J1-PDC and 885512-296-R-J2-PDC; and one ovarian carcinoma: 6556581-035-R-J-PDC were obtained from the NCI PDMR, (https://pdmr.cancer.gov). The established cell lines HSSY-2 synovial sarcoma (RRID:CVCL 8719), SYO-1 synovial sarcoma (RRID:CVCL_7146), MPNST malignant peripheral neural sheath tumor were obtained from the Sloan Kettering Institute. The following established cell lines were purchased from the American Type Culture Collection (ATCC, Manassas, VA), Sor the received from the NCI repository:, PANC-1 pancreatic carcinoma (CRL-1469, RRID:CVCL_0480), OVCAR-5 ovarian carcinoma (RRID:CVCL_1628), OVCAR-8 ovarian carcinoma (RRID:CVCL_1629), , MCF-7 breast carcinoma (CRL-12584, RRID:CVCL_0031), MDA-MB-231 breast carcinoma (CRL-12532, RRID:CVCL_0062), NCI-H1876 small cell lung carcinoma (CRL-5902, RRID:CVCL_1503), NCI-H510A small cell lung carcinoma (HTB-184, RRID:CVCL_1565), NCI-H1417 (CRL-5869, RRID:CVCL_1469), and NCI-H196 small cell lung carcinoma (CRL-5823, RRID:CVCL_1509). Dr. Peter Houghton (Greehey Children's Cancer Research Institute, University of Texas Health Science Center, San Antonio, TX) provided Rh-18 rhabdomyosarcoma (RRID:CVCL_1659). Pooled donor human umbilical vein endothelial cells (HUVEC, Lonza, cat. CC-2519) and human mesenchymal stem cells (hMSC, Lonza, cat. PT-2501) were purchased from Lonza (Walkersville, MD).
Cell Culture. […]
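Further: spheroids exposed to agents for 7 days.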
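Wherever viability, T/C is given: 100% = DMSO vehicle control wells.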

Question: For `O=C(c1cc(Cc2n[nH]c(=O)c3ccccc23)ccc1F)N1CCN(C(=O)C2CC2)CC1` + Cc1c(S(C)(=O)=O)c(-c2cc(F)cc(N3CCN(c4ccc(NS(=O)(=O)c5ccc(NC(CCN6CCC(C(=O)OCCCP(=O)(O)O)CC6)CSc6ccccc6)c(S(=O)(=O)C(F)(F)F)c5)cc4)CC3)c2)c(-c2ccc(Cl)cc2)n1C(C)C, which IC50 (second compound 0.1 µM) is on record?
Answer: > 10 µM

Question: And the IC50 (second compound 0.316 µM)?
Answer: > 10 µM

Question: And the IC50 (second compound 1 µM)?
Answer: 7.98 µM

Question: And the IC50 (second compound 3.16 µM)?
Answer: 4.39 µM

Question: And the IC50 (second compound 10 µM)?
Answer: 4.74 µM

Question: What about the viability, T/C (second compound 0.1 µM, first compound 0.0316 µM) of the same molecule?
Answer: 96.9%

Question: And the viability, T/C (second compound 0.1 µM, first compound 0.1 µM)?
Answer: 87.8%

Question: What about the viability, T/C (second compound 0.1 µM, first compound 0.316 µM) of the same molecule?
Answer: 99.3%

Question: And the viability, T/C (second compound 0.1 µM, first compound 1 µM)?
Answer: 114%

Question: And the viability, T/C (second compound 0.1 µM, first compound 3.16 µM)?
Answer: 103%

Question: And the viability, T/C (second compound 0.1 µM, first compound 10 µM)?
Answer: 91.8%

Question: What about the viability, T/C (second compound 0.316 µM, first compound 0.0316 µM) of the same molecule?
Answer: 89.1%

Question: What about the viability, T/C (second compound 0.316 µM, first compound 0.1 µM) of the same molecule?
Answer: 101%

Question: And the viability, T/C (second compound 0.316 µM, first compound 0.316 µM)?
Answer: 96.2%

Question: And the viability, T/C (second compound 0.316 µM, first compound 1 µM)?
Answer: 104%

Question: What about the viability, T/C (second compound 0.316 µM, first compound 3.16 µM) of the same molecule?
Answer: 86.3%

Question: What about the viability, T/C (second compound 0.316 µM, first compound 10 µM) of the same molecule?
Answer: 65.8%

Question: And the viability, T/C (second compound 1 µM, first compound 0.0316 µM)?
Answer: 99.7%

Question: What about the viability, T/C (second compound 1 µM, first compound 0.1 µM) of the same molecule?
Answer: 101%

Question: And the viability, T/C (second compound 1 µM, first compound 0.316 µM)?
Answer: 96.2%

Question: What about the viability, T/C (second compound 1 µM, first compound 1 µM) of the same molecule?
Answer: 96.5%

Question: What about the viability, T/C (second compound 1 µM, first compound 3.16 µM) of the same molecule?
Answer: 86.7%

Question: And the viability, T/C (second compound 1 µM, first compound 10 µM)?
Answer: 40.7%

Question: And the viability, T/C (second compound 3.16 µM, first compound 0.0316 µM)?
Answer: 96%

Question: And the viability, T/C (second compound 3.16 µM, first compound 0.1 µM)?
Answer: 93.5%

Question: And the viability, T/C (second compound 3.16 µM, first compound 0.316 µM)?
Answer: 109%

Question: What about the viability, T/C (second compound 3.16 µM, first compound 1 µM) of the same molecule?
Answer: 93%

Question: What about the viability, T/C (second compound 3.16 µM, first compound 3.16 µM) of the same molecule?
Answer: 60.5%

Question: And the viability, T/C (second compound 3.16 µM, first compound 10 µM)?
Answer: 24%

Question: And the viability, T/C (second compound 10 µM, first compound 0.0316 µM)?
Answer: 92.6%

Question: What about the viability, T/C (second compound 10 µM, first compound 0.1 µM) of the same molecule?
Answer: 95.1%

Question: What about the viability, T/C (second compound 10 µM, first compound 0.316 µM) of the same molecule?
Answer: 96.5%

Question: What about the viability, T/C (second compound 10 µM, first compound 1 µM) of the same molecule?
Answer: 88.9%

Question: What about the viability, T/C (second compound 10 µM, first compound 3.16 µM) of the same molecule?
Answer: 67.6%

Question: What about the viability, T/C (second compound 10 µM, first compound 10 µM) of the same molecule?
Answer: 17.9%

Reference: PubChem BioAssay AID1963426 (Molecular Pharmacology Branch, DTP, NCI, 2024)
